Measured values: patent publication US7078554B2, “Detection of glucose in solutions also containing an alpha-hydroxy acid or a beta-diketone” (Sensors for Medicine and Science, Inc., priority 2001, dated 2006)

How the values were obtained:
[1] = Effect of lactate in solution on the dose response effect of glucose on fluorescence; settings: 75 μM in PBS, 0–10 mM glucose with 0, 2 or 5 mM lactate, excitation 365 nm (FIG. 3)
Method: Spectra were recorded using a Shimadzu RF-5301 spectrafluorometer with excitation @365 nm; excitation slits at 1.5 nm; emission slits at 1.5 nm; ambient temperature. All points measured in triplicate, with ±1 SD error bars included.
(§1) The hydrogel film (100 μm thickness, 8 mm diameter disk) was mounted in a PMMA cuvette at a 45° angle. All measurements were made at 37° C. in a Shimadzu RF-5301 spectrofluorometer with excitation at 370 nm (slit=3 nm) and emission at 430 nm (slit=3 nm) at low PMT sensitivity. Glucose and L-sodium lactate concentrations were checked using the YSI Model 2300 STAT plus glucose analyzer. Error bars are standard deviation with triplicate values for each data point.
as §1, with “The data is plotted as the average of” for “Error bars are standard deviation with”

[2] = Modulation of fluorescence with glucose
[3] = Modulation of fluorescence with lactate
Solubility = type: physicochemical; settings: solvents in which soluble
[4] = aqueous association with glucose; cited from earlier work

Compound: O=C(O)CCN(Cc1ccccc1B(O)O)Cc1c2ccccc2c(CN(CCC(=O)O)Cc2ccccc2B(O)O)c2ccccc12 [9,10-bis[N-(2-boronobenzyl)-N-[2-(carboxyethyl)amino]-methyl]anthracene]
- effect of lactate on the fluorescence modulation (at 428 nm) by glucose [1]: did not substantially affect

Compound: CN(CCNc1ccc2c3c(cccc13)C(=O)N(CCNC(=O)c1cc(B(O)O)cc([N+](=O)[O-])c1)C2=O)Cc1ccccc1B(O)O [Example 10, N-(3-Borono-5-nitrobenzamido)ethyl-4-(N′-aminoethylene-N″-[2-(borono)benzyl]methylamino)naphthalene-1,8-dicarboximide]
- normalized fluorescence emission (I/I0 at 525 nm), effect of glucose ([2]; in MeOH/PBS (50/50 vol. %), pH 7.4, 0–50 mM glucose, excitation 430 nm (FIG. 12)): affected by the presence of glucose
- normalized fluorescence emission (I/I0 at 530 nm), effect of lactate ([3]; in MeOH/PBS (50/50 vol. %), pH 7.4, 0–7 mM L-sodium lactate, excitation 430 nm (FIG. 13)): not by the presence of lactate

Compound: C=C(C)C(=O)NCCCN(Cc1ccccc1B(O)O)Cc1c2ccccc2c(CN(CCC(=O)O)Cc2ccccc2B(O)O)c2ccccc12 [Example 12, 9-[N-(2-boronobenzyl)-N-[3-(methacrylamido)propylamino]methyl]-10-[N-(2-boronobenzyl)-N-[2-(carboxyethyl)amino]methyl]anthracene]
- Solubility (Solubility): PBS/methanol, methanol, ethanol, chloroform, dichloromethane

Compound: C=C(C)C(=O)NCCCN(Cc1ccccc1B1OC(C)(C)C(C)(C)O1)Cc1c2ccccc2c(CN(CCC(=O)NCCCCCCNC(=O)c2c3ccccc3cc3ccccc23)Cc2ccccc2B2OC(C)(C)C(C)(C)O2)c2ccccc12 [Example 13]
- Solubility (Solubility): PBS/methanol, methanol, ethanol, chloroform, dichloromethane

Compound: OB(O)c1ccccc1 [phenylboronic acid]
- Kd [4]: 9.1 mM

Compound: N-2-[6-N-(N-4-dimethylaminobenzyl)-6-N-[2-(borono)benzyl]aminohexyl]-[2-(borono)benzyl]amino-ethyl-4-butylamino-1,8-naphthalimide [Example 5]
- normalized fluorescence emission (I/Io @ 535 nm), effect of glucose ([2]; 0.015 mM in 70/30 MeOH/PBS, 0–20 mM glucose, excitation 450 nm (FIG. 5)): affected by the presence of glucose
- normalized fluorescence emission (I/Io @ 535 nm), effect of lactate ([3]; 0.015 mM in 70/30 MeOH/PBS, 0–20 mM lactate, excitation 450 nm (FIG. 5)): not substantially affected by the presence of lactate
